In this test the target is T1, human recombinant GPR65 (Homo sapiens, UniProt Q8IYL9).
T1 construct: host or cells: 1321N1 human astrocytoma cells (1321N1-hrGPR65)
T1 sequence (Q8IYL9 whole entry): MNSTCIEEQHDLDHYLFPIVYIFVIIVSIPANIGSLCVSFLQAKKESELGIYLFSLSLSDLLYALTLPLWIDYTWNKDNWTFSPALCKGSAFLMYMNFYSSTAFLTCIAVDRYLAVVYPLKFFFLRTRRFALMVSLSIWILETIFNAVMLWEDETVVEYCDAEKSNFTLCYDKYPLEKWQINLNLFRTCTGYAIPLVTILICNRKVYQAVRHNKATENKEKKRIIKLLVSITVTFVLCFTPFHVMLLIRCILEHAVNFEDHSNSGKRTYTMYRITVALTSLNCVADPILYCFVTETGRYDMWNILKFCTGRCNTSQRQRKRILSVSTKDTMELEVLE
The experiment in a line: Human GPR65 cAMP HTRF antagonist assay. The test is classed as cell-based. As to conditions: 1321N1-hrGPR65 cells, assay pH 7.2, cAMP HTRF; read-out: hGPR65 IC50. The source says: The “Human GPR65 cyclic adenosine monophosphate (cAMP) Homogeneous Time Resolved Fluorescence (HTRF) antagonist assay”, or simply “cAMP assay”, as described in the accompanying examples, can be used to measure the potency of GPR65 modulators, which is expressed as the concentration of compound required to reduce the increase in cAMP concentration upon GPR65 activation by 50% (i.e. an IC50).
Human GPR65 Cyclic Adenosine Monophosphate (cAMP) Homogeneous Time Resolved Fluorescence (HTRF) Antagonist Assay Procedure
IC50data was obtained by the following procedure:
1321N1 human astrocytoma cells stably expressing human recombinant GPR65 (1321N1-hrGPR65 cells, EuroscreenFast) were cultured according to the vendor's instructions.
Compounds were tested for their ability to antagonise GPR65, through measuring the concentration of cytoplasmic cAMP following treatment of the cells at a pH of 7.2 to activate GPR65 signalling and addition of the compound to be tested. The extent to which the expected rise in cAMP concentration upon GPR65 activation was suppressed by the added compound is indicative of its potency. The assay was carried out according to EuroscreenFast assay Methodology as follows.
On the day of the assay, test compounds were added to 384-well, low volume, white microtiter plates by acoustic dispensing. KRH buffer (5 mM KCl, 1.25 mM MgSO4, 124 mM NaCl, 25 mM HEPES, 13.3 mM Glucose, 1.25 mM KH2PO4 and 1.45 mM CaCl2) was adjusted to pH 6.5, pH 7.6 and pH 8.4 by adding NaOH. 1321N1-hGPR65 cells were rapidly thawed and diluted in KRH, pH 7.6 prior to centrifugation at 300×g for 5 min and resuspension in assay buffer (KRH, pH 7.6, supplemented with 1 mM 3-isobutyl-1-methylxanthine (IBMX) and 200 μM ethylenediaminetetraacetic acid (EDTA)). Cells were added to assay plates at a density of 2,000 cells per well in a volume of […]. Assay plates were briefly centrifuged at 100×g and then incubated at room temperature for 30 min. Cells were stimulated by the addition of 5 μL KRH, pH 6.5, to achieve an assay pH of 7.2, while control wells received […] KRH, pH 8.4 to achieve an assay pH of 7.9. Assay plates were briefly centrifuged at 100×g and then incubated at room temperature for 30 min.
Accumulation of cAMP was detected by cAMP HTRF kit (Cisbio). d2-labeled cAMP and cryptate-labeled anti-cAMP antibody in Lysis and Detection Buffer (Cisbio) were added to assay plates, and the plates were incubated at room temperature for 1 h. HTRF measurements were performed using a Pherastar FSX instrument. Acceptor and donor emission signals were measured at 665 nm and 620 nm, respectively, and HTRF ratios were calculated as signal665 nm/signal620 nm×104. Data were normalised to high and low control values and fitted with 4-parameter logistic regression to determine hGPR65 IC50 values for the test compounds, which are shown in Table 1.
Consider `Cc1nc2cc(-c3cc(F)c(NC(=O)N4[C@H]5CC[C@@H]4c4c[nH]c(=O)cc4C5)cc3Cl)ccc2[nH]1` [Compound 68, (6S,9R)-N-(5-chloro-2-fluoro-4-(2-methyl-1H-benzo[d]imidazol-5-yl)phenyl)-3-oxo-3,5,6,7,8,9-hexahydro-2H-6,9-epiminocyclohepta[c]pyridine-10-carboxamide], for which the IC50 is 500 to 5000 nM. For the compound `O=C(Nc1ccc(-c2ccc(OCC(F)(F)F)nc2)cc1F)N1[C@H]2CC[C@@H]1c1n[nH]c(=O)cc1C2` [Compound 21, (6S,9R)-N-(2-fluoro-4-(6-(2,2,2-trifluoroethoxy)pyridin-3-yl)phenyl)-3-oxo-3,5,6,7,8,9-hexahydro-2H-6,9-epiminocyclohepta[c]pyridazine-10-carboxamide], the IC50 was less than 500 nM. Under `O=C(Nc1cc(Cl)c(Cl)cn1)N1[C@@H]2CC[C@H]1[C@@H](F)c1c2ccnc1F` [Compound 42, (5R,8S,9S)-N-(4,5-dichloropyridin-2-yl)-1,9-difluoro-6,7,8,9-tetrahydro-5H-5,8-epiminocyclohepta[c]pyridine-10-carboxamide] stands less than 500 nM; under `O=C(Nc1cc(Cl)c(-c2ccc(OCC3CNC3)nc2)cc1F)N1[C@H]2CC[C@@H]1c1c[nH]c(=O)cc1C2` [Compound 63, (6S,9R)-N-(4-(6-(Azetidin-3-ylmethoxy)pyridin-3-yl)-5-chloro-2-fluorophenyl)-3-oxo-3,5,6,7,8,9-hexahydro-2H-6,9-epiminocyclohepta[c]pyridine-10-carboxamide], 500 to 5000 nM; under `O=C(Nc1ccc(Cl)cc1F)N1[C@H]2CC[C@@H]1c1ccnc(F)c1C2` [Compound 46, (5R,8S)-N-(4-chloro-2-fluorophenyl)-1-fluoro-6,7,8,9-tetrahydro-5H-5,8-epiminocyclohepta[c]pyridine-10-carboxamide], less than 500 nM.

Consider `CN1CC2(COc3ccc(-c4cc(F)c(NC(=O)N5[C@H]6CC[C@@H]5c5c[nH]c(=O)cc5C6)cc4Cl)cn3)CC1C2` [Compound 61, (6S,9R)-N-(5-Chloro-2-fluoro-4-(6-((2-methyl-2-azabicyclo[2.1.1]hexan-4-yl)methoxy)pyridin-3-yl)phenyl)-3-oxo-3,5,6,7,8,9-hexahydro-2H-6,9-epiminocyclohepta[c]pyridine-10-carboxamide], for which the IC50 is 500 to 5000 nM. As for `O=C(Nc1cc(Cl)c(-c2ccc(OC[C@H]3CCOC3)nc2)cc1F)N1[C@H]2CC[C@@H]1c1n[nH]c(=O)cc1C2` [Compound 80, (6S,9R)-N-(5-Chloro-2-fluoro-4-(6-(((S)-tetrahydrofuran-3-yl)methoxy)pyridin-3-yl)phenyl)-3-oxo-3,5,6,7,8,9-hexahydro-2H-6,9-epiminocyclohepta[c]pyridazine-10-carboxamide], the IC50 is less than 500 nM. Under `CN(C(=O)N1[C@H]2CC[C@@H]1c1n[nH]c(=O)cc1C2)c1cc(Cl)c(-c2ccc(OCC(F)(F)F)nc2)cc1F` [Compound 9, (6S,9R)-N-(5-chloro-2-fluoro-4-(6-(2,2,2-trifluoroethoxy)pyridin-3-yl)phenyl)-N-methyl-3-oxo-3,5,6,7,8,9-hexahydro-2H-6,9-epiminocyclohepta[c]pyridazine-10-carboxamide] stands 500 to 5000 nM. The result for `CC(C)(C)OC(=O)N1CC(COc2ccc(-c3cc(F)c(NC(=O)N4[C@H]5CC[C@@H]4c4c[nH]c(=O)cc4C5)cc3Cl)cn2)C1` [Compound 29, tert-Butyl 3-(((5-(2-chloro-5-fluoro-4-((6S,9R)-3-oxo-3,5,6,7,8,9-hexahydro-2H-6,9-epiminocyclohepta[c]pyridine-10-carboxamido)phenyl)pyridin-2-yl)oxy)methyl)azetidine-1-carboxylate] reads less than 500 nM; that for `O=C(Nc1cc(Cl)c(COc2ccccc2)cc1F)N1[C@H]2CC[C@@H]1c1c[nH]c(=O)cc1C2` [Compound 53, (6S,9R)-N-(5-chloro-2-fluoro-4-(phenoxymethyl)phenyl)-3-oxo-3,5,6,7,8,9-hexahydro-2H-6,9-epiminocyclohepta[c]pyridine-10-carboxamide], less than 500 nM.

Turning to `CN1CCC(Oc2ccc(-c3cc(F)c(NC(=O)N4[C@H]5CC[C@@H]4c4c[nH]c(=O)cc4C5)cc3Cl)cn2)C1` (stereo partly drawn) [Compound 62], the IC50 lay in the range of 500 to 5000 nM. Consider `O=C(Nc1cc(Cl)c(COc2ccc(OCC(F)(F)F)cn2)cc1F)N1[C@H]2CC[C@@H]1c1n[nH]c(=O)cc1C2` [Compound 55, (6S,9R)-N-(5-Chloro-2-fluoro-4-(((5-(2,2,2-trifluoroethoxy)pyridin-2-yl)oxy)methyl)phenyl)-3-oxo-3,5,6,7,8,9-hexahydro-2H-6,9-epiminocyclohepta[c]pyridazine-10-carboxamide], for which the IC50 was less than 500 nM. Consider `O=C(Nc1cc(Cl)c(-c2ccc(OCC3CCOC3)nc2)cc1F)N1[C@H]2CC[C@@H]1c1n[nH]c(=O)cc1C2` (stereo partly drawn) [Compound 41, (6S,9R)-N-(5-chloro-2-fluoro-4-(6-((tetrahydrofuran-3-yl)methoxy)pyridin-3-yl)phenyl)-3-oxo-3,5,6,7,8,9-hexahydro-2H-6,9-epiminocyclohepta[c]pyridazine-10-carboxamide], for which the IC50 is less than 500 nM. Under `COCCOCCO[C@H]1C[C@H](Oc2ccc(-c3cc(F)c(NC(=O)N4[C@H]5CC[C@@H]4c4c[nH]c(=O)cc4C5)cc3Cl)cn2)C1` [Compound 22, (6S,9R)-N-(5-chloro-2-fluoro-4-(6-((1r,3R)-3-(2-(2-methoxyethoxy)ethoxy)cyclobutoxy)pyridin-3-yl)phenyl)-3-oxo-3,5,6,7,8,9-hexahydro-2H-6,9-epiminocyclohepta[c]pyridine-10-carboxamide] stands less than 500 nM. The result for `O=C(Nc1cc(Cl)c(COc2cccc(F)n2)cc1F)N1[C@H]2CC[C@@H]1c1n[nH]c(=O)cc1C2` [Compound 52, (6S,9R)-N-(5-Chloro-2-fluoro-4-(((6-fluoropyridin-2-yl)oxy)methyl)phenyl)-3-oxo-3,5,6,7,8,9-hexahydro-2H-6,9-epiminocyclohepta[c]pyridazine-10-carboxamide] reads less than 500 nM. The result for `O=C(Nc1cc(Cl)c(-c2ccc(CC(F)(F)F)nc2)cc1F)N1[C@H]2CC[C@@H]1c1c[nH]c(=O)cc1C2` [Compound 40, (6S,9R)-N-(5-chloro-2-fluoro-4-(6-(2,2,2-trifluoroethyl)pyridin-3-yl)phenyl)-3-oxo-3,5,6,7,8,9-hexahydro-2H-6,9-epiminocyclohepta[c]pyridine-10-carboxamide] reads less than 500 nM. Consider `O=C(Nc1cc(Cl)c(-c2ccc(OCC3CN(CC(F)(F)F)C3)nc2)cc1F)N1[C@H]2CC[C@@H]1c1c[nH]c(=O)cc1C2` [Compound 32, (6S,9R)-N-(5-chloro-2-fluoro-4-(6-((1-(2,2,2-trifluoroethyl)azetidin-3-yl)methoxy)pyridin-3-yl)phenyl)-3-oxo-3,5,6,7,8,9-hexahydro-2H-6,9-epiminocyclohepta[c]pyridine-10-carboxamide], for which the IC50 is less than 500 nM.

In the case of `O=C(Nc1cc(Cl)c(-c2ccc(OC[C@H]3CC3(F)F)nc2)cc1F)N1[C@H]2CC[C@@H]1c1c[nH]c(=O)cc1C2` [Compound 82, (6S,9R)-N-(5-Chloro-4-(6-(((R)-2,2-difluorocyclopropyl)methoxy)pyridin-3-yl)-2-fluorophenyl)-3-oxo-3,5,6,7,8,9-hexahydro-2H-6,9-epiminocyclohepta[c]pyridine-10-carboxamide], the IC50 was less than 500 nM.
